Source: patent publication US20220380310A1, “P2X7R ANTAGONISTS” (priority 2019, published 2022)

Key:
P2X2R = target: T1, P2X2R (Homo sapiens, UniProt Q9UBL9); assay: Receptor-mediated calcium entrance assay (Calcium Assay), P2X2R; assay type: cell-based; details: compound at 5 μM, read-out: Percentage of activity remains in the presence of the compound at 5 μM, P2X2R (Calcium Assay)
T1 construct: expressed in transfected cells; host or cells: HEK-293
T1 sequence (Q9UBL9 1-471): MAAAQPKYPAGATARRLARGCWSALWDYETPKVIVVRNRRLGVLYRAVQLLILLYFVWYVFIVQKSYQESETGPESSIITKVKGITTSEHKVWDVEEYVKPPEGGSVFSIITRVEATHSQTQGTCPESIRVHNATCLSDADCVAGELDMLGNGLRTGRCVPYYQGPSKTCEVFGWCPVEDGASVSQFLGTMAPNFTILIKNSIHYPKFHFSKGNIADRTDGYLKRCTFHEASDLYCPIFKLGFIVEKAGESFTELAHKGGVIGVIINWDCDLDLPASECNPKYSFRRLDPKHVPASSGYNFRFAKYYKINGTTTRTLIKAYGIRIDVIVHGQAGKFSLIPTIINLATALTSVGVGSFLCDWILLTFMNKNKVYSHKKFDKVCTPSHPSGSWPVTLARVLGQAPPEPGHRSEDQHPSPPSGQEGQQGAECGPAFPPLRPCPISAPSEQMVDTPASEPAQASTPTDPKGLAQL

[1] = target: T2, Human P2X4 receptor (P2X4R) (Homo sapiens, UniProt Q99571); assay: Receptor-mediated calcium entrance assay (Calcium Assay), P2X4R transfected HEK-293 cells; assay type: cell-based; details: HEK293, compound at 5 μM, 1 mM ATP stimulus, read-out: Percentage of activity remains in the presence of the compound at 5 μM, P2X4R (Calcium Assay)
T2 construct: expressed in transfected cells; host or cells: HEK-293
T2 sequence (Q99571 1-388): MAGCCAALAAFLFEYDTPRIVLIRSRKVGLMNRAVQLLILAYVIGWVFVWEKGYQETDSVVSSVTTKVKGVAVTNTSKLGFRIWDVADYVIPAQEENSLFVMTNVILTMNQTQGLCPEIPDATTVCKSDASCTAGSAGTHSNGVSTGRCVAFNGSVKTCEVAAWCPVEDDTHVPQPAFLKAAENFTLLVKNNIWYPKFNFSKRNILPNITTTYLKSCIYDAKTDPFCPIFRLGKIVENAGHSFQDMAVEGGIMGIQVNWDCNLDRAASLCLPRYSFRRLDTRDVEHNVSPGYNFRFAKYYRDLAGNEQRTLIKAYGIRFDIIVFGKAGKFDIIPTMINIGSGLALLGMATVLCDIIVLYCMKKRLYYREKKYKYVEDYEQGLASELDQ
Description: Human P2X1 receptor (P2X1R) is a member of P2X family. […] Thus, the calcium assay was used. In the calcium assay, P2X receptor activation leads to opening of ion channels, which increases intracellular calcium concentration. The increased intracellular calcium concentration can be detected by a calcium indicator dye such as Fluo-4 or Fluo-8. Molecular Probes™ Fluo-4, AM (Cat. No. F14201 from Fisher Scientific) was used in the assay. The procedures were similar as described in the Yo-Pro-1 assay until day 4. The construct of P2X1R for transient transfection to HEK-293 cells was the courtesy from Dr. Richard J. Evans laboratory (J. Biol. Chem. 279:9043-9055). After transfection and expression, on day 4 cells were washed twice by Ca-HBSS (The composition (in mM) was NaCl 135, HEPES 10, D-glucose 10, KCl 5.4, CaCl2 2, and MgCl2 1, pH to 7.4 by NaOH) and incubated in dye loading solution (The solution contained 2.5 μM Fluo-4, 1 mM probenecid, and 1× PowerLoad (Cat. No. P10020 from Fisher Scientific) in Ca-HBSS) for 70 minutes at 37° C. Then the extracellular loading dye was washed away and cells were incubated at Ca-HBSS containing 1 mM probenecid for 30 minutes. Before the final steps, probenecid was washed away with Ca-HBSS. The assay was performed by adding 25 μl of Ca-HBSS followed by 25 μl of various test compounds. At this point, the base level of fluorescence was obtained through the microplate reading—the base microplate reading for this assay. At the end, the stimulus (ATP at 20 μM was the final concentration for P2X1R) was added to activate the P2X1R. Activation of P2X1R opened the channel to allow influx of calcium, which was represented by fluorescence increases that were measured by the microplate device with excitation at 475 nm and emission wavelength in the range of 500-550 nm. The data were analyzed the same way as described before: The result of each well was first normalized by its corresponding base microplate reading. Then, the negative control signal was subtracted from. In the negative control, the test compound and the stimulus were replaced by Ca-HBSS. […] An average of six highest values of the plate (AVG) were considered as 100% and the value of each well was divided by AVG and presented as the relative values in percentages.
Human P2X4 receptor (P2X4R) construct (J. Biol. Chem. 290, 7930-7942) was transiently transfected to HEK-293 cells and the calcium assay was performed as described above. When 1 mM ATP was used as stimulus, an increased receptor mediated activity leading to intracellular calcium elevation can be seen in less than 10 minutes.

SMILES	remaining activity at 5 µM (P2X2R)	remaining activity at 5 µM [1]
O=C(NCCc1ccccc1)C1CCCN(S(=O)(=O)c2ccc(N3CCOCC3)cc2)C1 (centres unmarked) [#24]	73.5%	68.1%
O=C(CCc1ccccc1)NC1CCCN(S(=O)(=O)c2ccc(N3CCCCC3)cc2)C1 (centres unmarked) [#5]	87.8%	53.1%
CC(C)COc1ccc(S(=O)(=O)N2CCCC(NC(=O)CCc3ccccc3)C2)cc1 (centres unmarked) [#6]	55.2%	98.9%
COCCOc1ccc(S(=O)(=O)N2CCCC(NC(=O)CCc3ccccc3)C2)cc1 (centres unmarked) [#17]	64.9%	77.6%
O=C(CCc1ccccc1)NC1CCCN(S(=O)(=O)c2ccc(OCc3ccccc3)cc2)C1 (centres unmarked) [#4]	83.7%	56.9%

More lines, now with the values ahead:

remaining activity at 5 µM (P2X2R)	remaining activity at 5 µM [1]	SMILES
59.4%	63.3%	O=C(CCc1ccccc1)NC1CCCN(c2ccc(S(=O)(=O)N3CCCCC3)cc2)C1 (centres unmarked) [#54]
52.2%	71.1%	O=C(CCc1ccccc1)NC1CCCN(S(=O)(=O)c2ccc(N3CCC(Oc4ccccc4)CC3)cc2)C1 (centres unmarked) [#38]
49.4%	72.2%	CC(C)(C)OC(=O)N1CCN(c2ccc(S(=O)(=O)N3CCCC(C(=O)NCCc4ccccc4)C3)cc2)CC1 (centres unmarked) [#36]
47.8%	91%	O=C(CCc1ccccc1)N1CCN(S(=O)(=O)c2ccc(N3CCOCC3)cc2)CC1 [#32]
65.6%	93.3%	CC1CCCCN1c1ccc(S(=O)(=O)N2CCCC(NC(=O)CCc3ccccc3)C2)cc1 (centres unmarked) [#47]
